From article PMC4136671 (Journal of Medicinal Chemistry, 2014)
Values belong to the molecule of their own block, whether it stands above or below them.

Experiments:
Chagas disease = conditions: acute and chronic forms; cited from earlier work
T. cruzi CYP51 [1] = target: T1, T. cruzi CYP51 (Trypanosoma cruzi, UniProt Q7Z1V1); assay: CYP51 activity assay; assay type: biochemical; conditions: vs (R)-2; I/E=2, 1 h
T. cruzi CYP51 [2] = target: T1, T. cruzi CYP51; assay: CYP51 spectral ligand binding assay; conditions: for time course of the amplitude of the type 2 spectral response: T. cruzi CYP51 1.0 μM, 0.2 μM ligand (enzyme in excess)

T1 sequence (Q7Z1V1 whole entry): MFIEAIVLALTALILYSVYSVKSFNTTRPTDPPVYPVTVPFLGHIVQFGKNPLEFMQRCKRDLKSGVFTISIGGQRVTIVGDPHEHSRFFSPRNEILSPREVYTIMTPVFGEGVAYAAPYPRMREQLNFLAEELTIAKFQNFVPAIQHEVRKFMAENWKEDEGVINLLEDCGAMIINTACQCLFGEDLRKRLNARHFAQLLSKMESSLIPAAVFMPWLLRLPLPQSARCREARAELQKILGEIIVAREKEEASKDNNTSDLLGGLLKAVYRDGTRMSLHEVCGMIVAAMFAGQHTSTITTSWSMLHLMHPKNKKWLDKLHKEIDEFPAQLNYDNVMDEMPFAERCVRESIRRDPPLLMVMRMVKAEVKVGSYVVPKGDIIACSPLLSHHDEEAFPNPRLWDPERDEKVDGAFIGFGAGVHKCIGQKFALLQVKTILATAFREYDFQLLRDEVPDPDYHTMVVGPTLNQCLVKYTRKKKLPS

Compound: O=C(N[C@@H](Cn1ccnc1)c1ccc(Cl)cc1Cl)c1ccc(-c2nnc(-c3ccccc3)o2)cc1 [VNI, (R)-N-(1-(2,4-dichlorophenyl)-2-(1H-imidazol-1-yl)ethyl)-4-(5-phenyl-1,3,4-oxadiazol-2-yl)benzamide]
cure of Chagas disease in mice (Chagas disease): cure both the acute and chronic forms

Compound: CC(C)c1ccc(NC(=O)O[C@H](Cn2ccnc2)c2ccc(Cl)cc2)cc1 [(S)-2, 1-(4-chlorophenyl)-2-(1H-imidazol-1-yl)ethyl-4-isopropylphenylcarbamate]
inhibitory effect on the substrate conversion, fold stronger than (R)-2 (T. cruzi CYP51 [1]): ~50 fold
apparent binding efficiency, fold higher than (R)-2 (T. cruzi CYP51 [2]; vs (R)-2): 2 fold

time course of the amplitude of the type 2 spectral response (T. cruzi CYP51 [2]): very slow increase
Compound: O=C(Nc1ccc(N2CCN(c3ccc(Cl)c(Cl)c3)CC2)cc1)OC(Cn1ccnc1)c1ccc(Cl)cc1Cl (centres unmarked) [Compound 6, 1-(2,4-dichlorophenyl)-2-(1H-imidazol-1-yl)ethyl 4-[4-(3,4-dichlorophenyl)piperazin-1-yl]phenylcarbamate]

time course of the amplitude of the type 2 spectral response (T. cruzi CYP51 [2]): somewhat similar pattern
Compound: CC(=O)N1CCN(c2ccc(OCC3COC(Cn4ccnc4)(c4ccc(Cl)cc4Cl)O3)cc2)CC1 (centres unmarked) [ketoconazole, reference compound]
